Source: patent US7008961B1, “Composition and method for treating carcinoma” (priority 1995, dated 2006)
Like-named read-outs stand apart in the source and are kept apart here.

How the values were obtained:
[1] = test system: transplantable tumor P-A III; details: cited from earlier work
[2] = test system: normal human adult prostate fibroblasts (NPF); assay: Clonogenic assay (colony growth), NPF; type: cell-based
Text: (§1) Assays of Rh-123 toxicity were done with three human prostate cancer cell lines, […], et al.: Establishment and characterization of a human prostatic carcinoma cell line, Invest Urol 17:16-23, 1979), DU-145 (Stone […], et al.: Isolation of a human prostatic carcinoma cell line (DU145), Int J Cancer 21:274-281, 1978), and LNCaP (Horoszewitz J, Leong […], et al.: LNCaP model of human prostatic carcinoma, Cancer Res 43:1809-1818, 1983), and a non-tumorigenic diploid prostate fibroblast cell strain (NPF-209) derived in our laboratories from a normal adult prostate. The NPF cells were used as controls, i.e., for comparison. […] Two different in vitro assays were used to assess cell viability following Rh-123 treatment, namely, • i) colony formation by a clonal assay procedure ([…], Ham R G: Clonal growth of human keratinocytes with small amounts of dialyzed serum, In Vitro 16:526-538, 1980); and • ii) viability of cells determined by the MTT assay utilizing previously described techniques (Alley […], Monks A, et al.: Feasibility of drug screening with panels of human tumor cell lines using a microculture tetrazolium assay, Cancer Res 40:589-601, 1988). Clonogenic potential of the treated human prostate cancer cells was determined on 24-hour-old cells seeded in 60 mm disposable dishes (1-2×10^2 cells/dish). […]

[3] = test system: metastatic hormone-refractory prostate cancer; assay: Phase I study: prostate specific acid phosphatase in blood after a single dose; type: in vivo, human; details: Patient 4, Level II (24 mg/m^2), single infusion
Protocol: The FDA has approved human clinical Phase I study of Rh-123. This phase evaluates the toxicity of Rh-123. The objective of the study is to determine safe dosing levels for Rh-123 starting at a level known to be safe for animals (about 0.3 mg/kg, which is equivalent to about 12 mg/m^2 for the typical prostate cancer patent), and proceeding upward in dosage until signs of moderate toxicity are observed. The Phase I study includes 21 volunteer patients with metastatic hormone-refractory prostate cancer to establish toxicity in a single dose escalation schedule. Only one dose per volunteer participant has been approved to date by the FDA, starting at 12 mg/m^2 at level I (three participants per level), and increasing in subsequent levels until dose-limiting toxicity is observed. Using a solution of four milligrams of Rh-123 per milliliter of a solution which includes 5% alcohol and 5% glucose in distilled water, the FDA has approved the dose escalation schedule shown in Table I: [table] As of the date of this application for patent, seven patients have been treated in accordance with the protocol described above.

[4] = test system: PC-3 prostate cancer cells; assay: MTT cytotoxicity/viability assay, PC-3; type: cell-based, human
Text: as §1, with “comparison. The cells were maintained in disposable plastic culture vessels in a 1:1 mix of Dulbecco's modified Eagle's medium and Ham's F12 (DMEM/F12, from Sigma Chemical Co, St. Louis, Mo.) supplemented with 10% fetal bovine serum (FBS, from HyClone Labs, Inc., Logan, Utah). 3-[4,5-Dimethylthiazol-2-yl]-2,5-diphenyltetrazolium bromide (MTT), DMSO, and other chemicals were also obtained from Sigma.” for “comparison.”, “Cytotoxicity due to Rh-123 treatment was determined with” for “Clonogenic potential of”, “the” for “the treated”, “grown in 96-well disposable microtiter plates. […] The plates were next read at A540 […] with an Emax precision microplate reader (Molecular Devices Corporation, Menlo Park, Calif.). […] The cell-bound dye is dissolved with DMSO and spectrophotometrically quantitated by absorbance at a wavelength of 540 nm. The OD540 nm reading is a measure of the number of viable” for “was determined on 24-hour-old”, “present” for “seeded”, “the test sample.” for “60 mm disposable dishes (1-2×10^2 cells/dish).”

[5] = test system: DU-145 prostate cancer cells; assay: Clonogenic assay (colony growth), DU-145; type: cell-based, human
Text: as §1

[6] = test system: transplantable rat prostate tumor R3327-H (Dunning); details: saline suspension, s.c. every other day, 15 mg/kg body weight; cited from earlier work
[7] = test system: DU-145 prostate cancer cells; assay: MTT cytotoxicity/viability assay, DU-145; type: cell-based, human
Text: as §1, with “comparison. The cells were maintained in disposable plastic culture vessels in a 1:1 mix of Dulbecco's modified Eagle's medium and Ham's F12 (DMEM/F12, from Sigma Chemical Co, St. Louis, Mo.) supplemented with 10% fetal bovine serum (FBS, from HyClone Labs, Inc., Logan, Utah). 3-[4,5-Dimethylthiazol-2-yl]-2,5-diphenyltetrazolium bromide (MTT), DMSO, and other chemicals were also obtained from Sigma.” for “comparison.”, “Cytotoxicity due to Rh-123 treatment was determined with” for “Clonogenic potential of”, “the” for “the treated”, “grown in 96-well disposable microtiter plates. […] The plates were next read at A540 […] with an Emax precision microplate reader (Molecular Devices Corporation, Menlo Park, Calif.). […] The cell-bound dye is dissolved with DMSO and spectrophotometrically quantitated by absorbance at a wavelength of 540 nm. The OD540 nm reading is a measure of the number of viable” for “was determined on 24-hour-old”, “present” for “seeded”, “the test sample.” for “60 mm disposable dishes (1-2×10^2 cells/dish).”

[8] = test system: LNCaP prostate cancer cells; assay: MTT cytotoxicity/viability assay, LNCaP; type: cell-based, human
Text: as §1, with “Cytotoxicity due to Rh-123 treatment was determined with” for “Clonogenic potential of”, “the” for “the treated”, “grown in 96-well disposable microtiter plates. […] The OD540 nm reading is a measure of the number of viable” for “was determined on 24-hour-old”, “present” for “seeded”, “the test sample.” for “60 mm disposable dishes (1-2×10^2 cells/dish).”

[9] = test system: PC-3 prostate cancer cells; assay: Clonogenic assay (colony growth), PC-3; type: cell-based, human
Text: as §1

[10] = test system: LNCaP prostate cancer cells; assay: Clonogenic assay (colony growth), LNCaP; type: cell-based, human
Text: as §1

[11] = test system: Swiss Webster mice; type: in vivo; details: s.c. every other day for 2 weeks
Protocol: The toxicity of two solvents for Rh-123, DMSO and alcohol-glucose, was studied in 60-day-old Swiss Webster mice (Simonsen Laboratories, Inc., Gilroy, Calif.). For each solvent there were five groups of five mice each, with the Rh-123 dose per group being 0, 2.0, 7.5, 15, and 20 mg/kg of body weight. A sixth group of five mice were not given any solvent or Rh-123. The solvents, with and without Rh-123, were administered at a concentration of 50% by volume DMSO in distilled water, and 5% alcohol by volume in a 5% by weight solution of glucose in distilled water. […] The concentration of Rh-123 was 5 mg/ml. Appropriate controls were utilized. The mice were injected subcutaneously every other day for 2 weeks.

[12] = test system: autochthonous rat prostate complex adenocarcinoma (ARPCA); assay: Induced autochthonous rat prostate adenocarcinoma in L-W rats; type: in vivo; details: 15 mg/kg BW s.c. every other day for six doses
Protocol: To determine the effectiveness of Rh-123 on induced autochthonous rat prostate adenocarcinoma developed within the prostate gland and seminal vesicles of L-W rats, thirteen L-W rats were inoculated intravenously with acidified MNU (30 mg/kg of body weight (BW)). Following the single inoculation of MNU, the rats were each implanted subcutaneously with 50 mg TP sealed in a silastic tube. Three implants of TP were administered, each at intervals of 2 months. After a latent period of 4–6 months, small palpable tumors were detected in the abdomen. The rats were then administered Rh-123 (15 mg/kg BW) subcutaneously every other day for six doses. The Rh-123 was dissolved in a 5% (by volume) ethanol-5% (by weight) glucose solution in sterile water at a concentration of 5 mg/ml. The rats were sacrificed 1 week after the last dose of Rh-123 and their tissues were fixed in 10% formalin.

[13] = test system: NPF non-tumorigenic diploid prostate fibroblast cells; assay: MTT cytotoxicity/viability assay, NPF; type: cell-based, human
Text: as §1, with “Cytotoxicity due to Rh-123 treatment was determined with” for “Clonogenic potential of”, “the” for “the treated”, “grown in 96-well disposable microtiter plates. […] The OD540 nm reading is a measure of the number of viable” for “was determined on 24-hour-old”, “present” for “seeded”, “the test sample.” for “60 mm disposable dishes (1-2×10^2 cells/dish).”

COC(=O)c1ccccc1-c1c2ccc(=N)cc-2oc2cc(N)ccc12.Cl [Rh-123, methyl o-(6-amino-3-imino-3H-xanthen-9-yl) benzoate monohydrochloride]
effect on tumor cells ([1]; Rh-123 dissolved in DMSO): significant destruction of tumor cells | sensitivity of tumor to Rh-123 ([1]; Rh-123 dissolved in DMSO): highly sensitive | toxicity in normal cells ([1]; rat, in vivo): no toxicity noted | tumor growth after injection of tumor remnants into untreated susceptible L-W rats ([1]; remnants of Rh-123-treated tumor): no tumor growth | maximal suppression of colony growth ([2]; 72-hour exposure): 28 % of control | suppression of colony growth ([2]; 72-hour exposure to 50 μg/ml (data not shown)): Total suppression was not achieved | course of prostate specific acid phosphatase in blood after 48 hours [3]: steadily decreased until two months after the infusion | recovery of treated cells in Rh-123-free normal growth medium ([4]; PC-3): poor | relative sensitivity to Rh-123 exposure among the cancer cell lines ([4]; PC-3): most sensitive | loss of viable cells ([4]; PC-3, exposed 2 days or longer, concentrations as low as 1.25–2 μg/ml): marked | suppression of colony growth ([5]; DU-145, 10 μg/ml for 72 hours): Complete suppression | growth suppression (colony growth) ([5]; DU-145, compared with PC-3 and LNCaP): less marked | effect on tumor (histology) [6]: significant destructive alteration of the acinar cells | recovery of treated cells in Rh-123-free normal growth medium ([7]; DU-145): poor | relative sensitivity to Rh-123 exposure among the cancer cell lines ([7]; DU-145): more refractory than either the PC-3 or the LNCaP cells | loss of viable cells ([7]; DU-145, exposed 2 days or longer, concentrations as low as 1.25–2 μg/ml): marked | recovery of treated cells in Rh-123-free normal growth medium [8]: poor | loss of viable cells ([8]; exposed 2 days or longer, concentrations as low as 1.25–2 μg/ml): marked | suppression of colony growth ([9]; PC-3, 10 μg/ml for 72 hours): Complete suppression | colony growth ([9]; PC-3, exposure to 10 μg/ml): greatly suppressed | suppression of colony growth ([10]; 10 μg/ml for 72 hours): Complete suppression | colony growth ([10]; exposure to 10 μg/ml): greatly suppressed | mortality ([11]; 15 mg/kg Rh-123 in 50% DMSO, group of five mice): one of five mice died | mortality ([11]; 20 mg/kg Rh-123 in 50% DMSO, group of five mice): Three of five mice died | mortality ([11]; 20 mg/kg Rh-123 in alcohol-glucose solution): no mortality | effect on normal surrounding tissue [12]: no change | gross changes in the tumor mass of the prostate complex [12]: No gross changes | microscopic examination of tumor tissue of prostate complex ([12]; sacrificed 1 week after last dose): marked cellular and acinar destruction, pyknosis, cytoplasmic smearing, and intraepithelial cyst formation | growth inhibition due to Rh-123 treatment ([13]; 0–80 μg/ml, FIG. 5): much less than that observed with tumorigenic cells | viability of cells ([13]; after prolonged Rh-123 exposures): remained relatively high
